Assay results as given in patent US20100022483A1, “Substituted Tetracycline Compounds” (Paratek Pharmaceuticals, Inc., priority 2008, published 2010).
In brackets after ≈: the same amount, converted by molar mass. Where two headings read alike, the source gives them in different places.

Tests used:
[1] = test system: gram negative bacteria; assay: In vitro anti-bacterial activity assay (broth dilution MIC), gram negative bacteria; assay type: cell-based, E. coli
Outline: (§1)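 Broth dilution MIC following CLSI M7-A2: compounds serially diluted, log-phase test strains added to final ~5×10^5 CFU/ml, incubated ~18 hours at 35° C in ambient air. Plates read on microplate reader or visually; MIC is lowest concentration inhibiting growth.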

[2] = test system: 3T3 fibroblast cells; assay: In vitro phototoxicity assay (neutral red; UV light-treated vs dark control plates); assay type: cell-based; details: for Photo Toxicity UV Tox50: UV light 50 minutes; for Photo Toxicity Dark Tox50: dark control plate
Outline: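 Neutral red viability readout (A535 after EtOH/acetic acid extraction) compares paired plates: one exposed 50 min to UV at 1.6–1.8 mW/cm^2, one held in darkness, both dosed with compound in HBSS and recovered overnight. 3T3 fibroblast cells used; phototoxicity taken as the difference.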

[3] = in vitro; assay type: cell-based; details: Chinese hamster, Cytotox. CHO-K1
[4] = test system: gram positive bacteria; assay: In vitro anti-bacterial activity assay (broth dilution MIC), gram positive bacteria; assay type: cell-based, S. aureus; details: 18 h
Outline: as §1

[5] = Mammalian cytotoxicity assay (resazurin), COS-1 cells; assay type: cell-based; details: African green monkey, read-out: Cytotox. COS-1
Outline: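 Cells seeded overnight at 37° C., 5% CO2, then exposed to serial compound dilutions for 24 hours. Medium replaced with resazurin (0.042 mg/ml in PBS with Ca and Mg) for 2 hours plus 30 minutes dark at room temperature; fluorescence read at ex 535/em 590 nm, IC50 taken as 50% growth inhibition.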

[6] = Escherichia coli, 18 h, E. coli D1 209, read-out: Median MIC's G− E. coli D1 209
[7] = Escherichia coli, 18 h, E. coli MG 1655, read-out: Median MIC's G− E. coli MG 1655
[8] = Escherichia coli, ATCC25922, 18 h, E. coli ATCC 25922, read-out: Median MIC's G− E. coli ATCC 25922
[9] = Pseudomonas aeruginosa, 18 h, P. aeruginosa K201 PAO6609, read-out: Median MIC's G− P. aeruginosa K201 PAO6609
[10] = Staphylococcus aureus, S. aureus MRSA5, read-out: Median MIC's G+ S. aureus MRSA5
[11] = Staphylococcus aureus, S. aureus RN450, read-out: Median MIC's G+ S. aureus RN450
[12] = Streptococcus pneumoniae, S. pneumoniae 157E-Strep, read-out: Median MIC's G+ S. pneumoniae 157E-Strep

## CN(C)CCCc1cccc(-c2ccc(O)c3c2C[C@H]2C[C@H]4[C@H](N(C)C)C(O)=C(C(N)=O)C(=O)[C@@]4(O)C(O)=C2C3=O)c1 [DJ]
[1]; [6]
  MIC: 2 µg/mL (≈ 3.47 µM)
[1]; [7]
  MIC: 8 µg/mL (≈ 13.9 µM)
[1]; [8]
  MIC: 2 µg/mL (≈ 3.47 µM)
[1]; [9]
  MIC: 64 µg/mL (≈ 111 µM)
[2]
  Photo Toxicity UV Tox50: >200 µM
  Photo Toxicity Dark Tox50: >200 µM
[3]
  IC50 at 24 h: 119 µM
[4]; [10]
  MIC: 4 µg/mL (≈ 6.95 µM)
[4]; [11]
  MIC: 0.0625 µg/mL (≈ 0.109 µM)
[4]; [12]
  MIC: 0.06 µg/mL (≈ 0.104 µM)
[5]
  IC50 at 24 h: 141 µM

## CN1CCN(Cc2cccc(-c3ccc(O)c4c3C[C@H]3C[C@H]5[C@H](N(C)C)C(O)=C(C(N)=O)C(=O)[C@@]5(O)C(O)=C3C4=O)c2)CC1 [DK]
[1]; [6]
  MIC: 2 µg/mL (≈ 3.32 µM)
[1]; [7]
  MIC: 4 µg/mL (≈ 6.64 µM)
[1]; [8]
  MIC: 1 µg/mL (≈ 1.66 µM)
[1]; [9]
  MIC: 64 µg/mL (≈ 106 µM)
[2]
  Photo Toxicity UV Tox50: >200 µM
  Photo Toxicity Dark Tox50: >200 µM
[3]
  IC50 at 24 h: 92.3 µM
[4]; [10]
  MIC: 4 µg/mL (≈ 6.64 µM)
[4]; [11]
  MIC: 0.0625 µg/mL (≈ 0.104 µM)
[4]; [12]
  MIC: 0.06 µg/mL (≈ 0.0996 µM)
[5]
  IC50 at 24 h: > 200 µM

## CN1CCN(C(=O)c2cccc(-c3ccc(O)c4c3C[C@H]3C[C@H]5[C@@H](N(C)C)C(O)=C(C(N)=O)C(=O)[C@@]5(O)C(O)=C3C4=O)c2)CC1 [D]
[1]; [6]
  MIC: 64 µg/mL (≈ 104 µM)
[1]; [7]
  MIC: 64 µg/mL (≈ 104 µM)
[1]; [8]
  MIC: 64 µg/mL (≈ 104 µM)
[1]; [9]
  MIC: 64 µg/mL (≈ 104 µM)
[2]
  Photo Toxicity UV Tox50: >130.51 µM
  Photo Toxicity Dark Tox50: >130.51 µM
[3]
  IC50 at 24 h: > 131 µM
[4]; [10]
  MIC: 64 µg/mL (≈ 104 µM)
[4]; [11]
  MIC: 32 µg/mL (≈ 51.9 µM)
[4]; [12]
  MIC: 4 µg/mL (≈ 6.49 µM)
[5]
  IC50 at 24 h: > 131 µM

## CCN(CC)CCNC(=O)c1cccc(-c2ccc(O)c3c2C[C@H]2C[C@H]4[C@H](N(C)C)C(O)=C(C(N)=O)C(=O)[C@@]4(O)C(O)=C2C3=O)c1 [E, (4S,4aS,5aR,12aS)-7-[3-(2-Diethylamino-ethylcarbamoyl)-phenyl]-4-dimethylamino-3,10,12,12a-tetrahydroxy-1,1′-dioxo-1,4,4a,5,5a,6,11,12a-octahydro-naphthacene-2-carboxylic acid amide]
[1]; [6]
  MIC: 64 µg/mL (≈ 101 µM)
[1]; [7]
  MIC: 8 µg/mL (≈ 12.6 µM)
[1]; [8]
  MIC: 8 µg/mL (≈ 12.6 µM)
[1]; [9]
  MIC: 64 µg/mL (≈ 101 µM)
[2]
  Photo Toxicity UV Tox50: >138.88 µM
  Photo Toxicity Dark Tox50: >138.88 µM
[3]
  IC50 at 24 h: > 139 µM
[4]; [10]
  MIC: 16 µg/mL (≈ 25.3 µM)
[4]; [11]
  MIC: 0.5 µg/mL (≈ 0.79 µM)
[4]; [12]
  MIC: 0.125 µg/mL (≈ 0.198 µM)
[5]
  IC50 at 24 h: > 139 µM

## CCCCNC(=O)c1cccc(-c2ccc(O)c3c2C[C@H]2C[C@H]4[C@H](N(C)C)C(O)=C(C(N)=O)C(=O)[C@@]4(O)C(O)=C2C3=O)c1 [F]
[1]; [6]
  MIC: 64 µg/mL (≈ 109 µM)
[1]; [7]
  MIC: 64 µg/mL (≈ 109 µM)
[1]; [8]
  MIC: 64 µg/mL (≈ 109 µM)
[1]; [9]
  MIC: 64 µg/mL (≈ 109 µM)
[2]
  Photo Toxicity UV Tox50: >151.73 µM
  Photo Toxicity Dark Tox50: >151.73 µM
[3]
  IC50 at 24 h: > 15.2 µM
[4]; Staphylococcus aureus, read-out: Median MIC's G+ S. aureus MRSA5
  MIC: 1 µg/mL (≈ 1.7 µM)
[4]; Staphylococcus aureus, read-out: Median MIC's G+ S. aureus RN450
  MIC: 0.06 µg/mL (≈ 0.102 µM)
[4]; Streptococcus pneumoniae, read-out: Median MIC's G+ S. pneumoniae 157E-Strep
  MIC: 0.06 µg/mL (≈ 0.102 µM)
[5]
  IC50 at 24 h: 15.2 µM

## CN(C)[C@@H]1C(O)=C(C(N)=O)C(=O)[C@@]2(O)C(O)=C3C(=O)c4c(O)ccc(-c5cnc6ccccc6c5)c4C[C@H]3C[C@@H]12 [G]
[1]; [6]
  MIC: 64 µg/mL (≈ 118 µM)
[1]; [7]
  MIC: 64 µg/mL (≈ 118 µM)
[1]; [8]
  MIC: 4 µg/mL (≈ 7.39 µM)
[1]; [9]
  MIC: 64 µg/mL (≈ 118 µM)
[2]
  Photo Toxicity UV Tox50: 19.29 µM
  Photo Toxicity Dark Tox50: >159.48 µM
[3]
  IC50 at 24 h: 14.8 µM
[4]; [10]
  MIC: 0.5 µg/mL (≈ 0.923 µM)
[4]; [11]
  MIC: 0.06 µg/mL (≈ 0.111 µM)
[4]; [12]
  MIC: 0.06 µg/mL (≈ 0.111 µM)
[5]
  IC50 at 24 h: 15.9 µM

## CN(C)[C@H]1C(O)=C(C(N)=O)C(=O)[C@@]2(O)C(O)=C3C(=O)c4c(O)ccc(-c5cnc6ccccc6c5)c4C[C@H]3C[C@@H]12 [H]
[1]; [6]
  MIC: 64 µg/mL (≈ 118 µM)
[1]; [7]
  MIC: 64 µg/mL (≈ 118 µM)
[1]; [8]
  MIC: 64 µg/mL (≈ 118 µM)
[1]; [9]
  MIC: 64 µg/mL (≈ 118 µM)
[2]
  Photo Toxicity UV Tox50: >159.48 µM
  Photo Toxicity Dark Tox50: >159.48 µM
[3]
  IC50 at 24 h: > 15.9 µM
[4]; [10]
  MIC: 2 µg/mL (≈ 3.69 µM)
[4]; [11]
  MIC: 0.5 µg/mL (≈ 0.923 µM)
[4]; [12]
  MIC: 0.25 µg/mL (≈ 0.462 µM)
[5]
  IC50 at 24 h: > 15.9 µM

## CCOC(=O)CCNC(=O)c1cccc(-c2ccc(O)c3c2C[C@H]2C[C@H]4[C@H](N(C)C)C(O)=C(C(N)=O)C(=O)[C@@]4(O)C(O)=C2C3=O)c1 [I, 3-[3-((6aS,10S,10aS,11aR)-8-Carbamoyl-10-dimethylamino-4,6,6a,9-tetrahydroxy-5,7-dioxo-5,6a,7,10,10a,11,11a,12-octahydro-naphthacen-1-yl)-benzoylamino]-propionic acid ethyl ester]
[1]; Escherichia coli, 18 h, read-out: Median MIC's G− E. coli D1 209, E. coli D1 209
  MIC: 64 µg/mL (≈ 101 µM)
[1]; Escherichia coli, 18 h, read-out: Median MIC's G− E. coli MG 1655, E. coli MG 1655
  MIC: 64 µg/mL (≈ 101 µM)
[1]; Escherichia coli, ATCC25922, 18 h, read-out: Median MIC's G− E. coli ATCC 25922, E. coli ATCC 25922
  MIC: 64 µg/mL (≈ 101 µM)
[1]; Pseudomonas aeruginosa, 18 h, read-out: Median MIC's G− P. aeruginosa K201 PAO6609, P. aeruginosa K201 PAO6609
  MIC: 64 µg/mL (≈ 101 µM)
[2]
  Photo Toxicity UV Tox50: >141.76 µM
  Photo Toxicity Dark Tox50: >141.76 µM
[3]
  IC50 at 24 h: > 14.2 µM
[4]; [10]
  MIC: 2 µg/mL (≈ 3.16 µM)
[4]; [11]
  MIC: 0.06 µg/mL (≈ 0.0947 µM)
[4]; [12]
  MIC: 3 µg/mL (≈ 4.73 µM)
[5]
  IC50 at 24 h: > 14.2 µM

## CN(C)CC(=O)Nc1cccc(-c2ccc(O)c3c2C[C@H]2C[C@H]4[C@H](N(C)C)C(O)=C(C(N)=O)C(=O)[C@@]4(O)C(O)=C2C3=O)c1 [K, (4S,4aS,5aR,12aS)-4-Dimethylamino-7-[3-(2-dimethylamino-acetylamino)-phenyl]-3,10,12,12a-tetrahydroxy-1,11-dioxo-1,4,4a,5,5a,6,11,12a-octahydro-naphthacene-2-carboxylic acid amide]
[1]; [6]
  MIC: 2 µg/mL (≈ 3.39 µM)
[1]; [7]
  MIC: 2 µg/mL (≈ 3.39 µM)
[1]; [8]
  MIC: 1 µg/mL (≈ 1.69 µM)
[1]; [9]
  MIC: 64 µg/mL (≈ 108 µM)
[2]
  Photo Toxicity UV Tox50: >128.09 µM
  Photo Toxicity Dark Tox50: >128.09 µM
[3]
  IC50 at 24 h: > 12.8 µM
[4]; [10]
  MIC: 2 µg/mL (≈ 3.39 µM)
[4]; [11]
  MIC: 0.06 µg/mL (≈ 0.102 µM)
[4]; [12]
  MIC: 0.06 µg/mL (≈ 0.102 µM)
[5]
  IC50 at 24 h: > 12.8 µM

## COCCNC(=O)c1cccc(-c2ccc(O)c3c2C[C@H]2C[C@H]4[C@H](N(C)C)C(O)=C(C(N)=O)C(=O)[C@@]4(O)C(O)=C2C3=O)c1 [L]
[1]; [6]
  MIC: 64 µg/mL (≈ 108 µM)
[1]; [7]
  MIC: 32 µg/mL (≈ 54.1 µM)
[1]; [8]
  MIC: 8 µg/mL (≈ 13.5 µM)
[1]; [9]
  MIC: 64 µg/mL (≈ 108 µM)
[2]
  Photo Toxicity UV Tox50: >151.25 µM
  Photo Toxicity Dark Tox50: >151.25 µM
[3]
  IC50 at 24 h: > 15.1 µM
[4]; [10]
  MIC: 1 µg/mL (≈ 1.69 µM)
[4]; [11]
  MIC: 0.06 µg/mL (≈ 0.101 µM)
[4]; [12]
  MIC: 0.06 µg/mL (≈ 0.101 µM)
[5]
  IC50 at 24 h: > 15.1 µM

## CNCCNC(=O)c1cccc(-c2ccc(O)c3c2C[C@H]2C[C@H]4[C@H](N(C)C)C(O)=C(C(N)=O)C(=O)[C@@]4(O)C(O)=C2C3=O)c1 [M]
[1]; [6]
  MIC: 64 µg/mL (≈ 108 µM)
[1]; [7]
  MIC: 64 µg/mL (≈ 108 µM)
[1]; [8]
  MIC: 64 µg/mL (≈ 108 µM)
[1]; [9]
  MIC: 64 µg/mL (≈ 108 µM)
[2]
  Photo Toxicity UV Tox50: >143.16 µM
  Photo Toxicity Dark Tox50: >143.16 µM
[3]
  IC50 at 24 h: > 143 µM
[4]; [10]
  MIC: 64 µg/mL (≈ 108 µM)
[4]; [11]
  MIC: 4 µg/mL (≈ 6.77 µM)
[4]; [12]
  MIC: 32 µg/mL (≈ 54.2 µM)
[5]
  IC50 at 24 h: > 143 µM
